The source of these data is article PMC12707061 (National Science Review, 2025).

Data set [1] has as its system mPFC VIP neurons. In words: Patch-clamp recordings of mPFC VIP neurons in slices after in vivo drug injection. On the set-up: species or system mice. The note with it: for resting membrane potential (RMP) of VIP neurons, average: saline controls −58.8 mV. The procedure: The brain was removed quickly after decapitation and immediately put into ice-cold oxygenated NMDG ACSF. A few minutes later, coronal slices containing the mPFC (300 μm thickness for mice) were sectioned in cold ACSF using a vibratome (VT1200 S, Leica) and then transferred into oxygenated NMDG ACSF at 32°C for incubation and recovery for 10–15 min. […] All chemicals were purchased from Sigma–Aldrich (St. Louis, MO, USA).
(§1) All drugs were dissolved in 0.9% saline and administered by intraperitoneal (i.p.) injection.
For in intro brain slices recording, AAV-Ef1α-DIO-mCherry virus was injected in the mPFC for labeling VIP neurons, and a 26-gauge double guide cannula (center-to-center distance 0.80 mm; RWD, China) was subsequently implanted in the same site of Vip-Cre mice.
For mPFC VIP neuron recordings, brain slices were transferred into the recording chamber filled with ACSF. VIP positive neurons were visualized with differential interference contrast optics (DIC, Olympus BX61WI). The recording pipettes (4-5 MΩ) were pulled with a micropipette puller (P97, Sutter Instrument; USA). […] When the whole-cell record was formed, to record the neuronal firing, the neurons were held at I=0 pA under current-clamp mode; to measure the intrinsic membrane properties, the same neurons were held at […] and spikes were induced by increases of current injection (each step was 5 pA, range –10-45 pA). All recordings were performed for 5 minutes typically.
The specific operation is as follows: using the Threshold search function in the Clampfit software Event Detection, setting the baseline and threshold for identifying the action potential, and then automatically identifying and measuring each action potential. The curve of firing was plotted using MATLAB. All events, including the spike numbers, were finally verified by eye.

For data set [2], the system named is mice. The experiment in a line: TST, FST and OFT in mice with ketamine and pre-treatments. The note with it: for locomotion and anxiety-like behaviors during the OFT: 1 h after injection; for effect of pre-treatment on ketamine's decrease of immobility in TST and FST: p-CPA i.p. once per day for 3 days, palonosetron into mPFC 0.5 h before ketamine. The procedure: Behavioral experiments were performed after 3-4 weeks of viral expression.
For behavioral experiments, C57BL/6 mice were recovered for at least 7 days before behavioral testing. Before micro-infusions, a 26-gauge internal injector with 3 mm projection was placed into the guide cannula, connected via PE tubing to a Hamilton micro-syringe driven by hand. […] The injector cannula was removed 3 min after infusion was finished, and corresponding behavioral tests were performed.
The mice were suspended in a computerized device allowing four animals to be recorded at one time, and were separated in a chamber, both acoustically and visually isolated. To ensure mice could not contact or climb with other things, an individual mouse was suspended 50 cm above the floor by a tail tape that was placed approximately 1 cm from the tip of the tail. The activities of the animals were recorded for 6 minutes by a video recorder. The total duration of immobility at the last 4 minutes of testing time was analyzed by one who was blinded to the test.
The FST apparatus was a clear glass tank (40 cm high and 20 cm in diameter) filled with water (25-26 °C), and the water depth was set to ensure mice could not touch the bottom with their tails or hind limbs. Mice were placed individually into the apparatus and allowed to swim for 6 minutes. The mice were considered immobile when floating in the water without struggling and making only those movements necessary to keep their heads above the water. Total immobility times during the last 4 minutes of the 6-minute testing period were analyzed by a researcher blinded to the test.
Mice were placed in a white open field chamber (38 x 38 x 40 cm) built by an acrylic plate in a room with dim light. The movement of each animal was tracked by a video camera positioned directly above the chamber (Jiliang, Shanghai). Time spent in the center zone of the chamber was a measure of anxiety behavior. Mice were allowed to move freely for 5 minutes in the arena. Total distance and center zone time were automatically analyzed by software (Jiliang, Shanghai).

The test system of data set [3] is mPFC VIP neurons. In words: Whole-cell recordings of mPFC VIP neurons with bath application of drugs to brain slices. In kind it is cell-based, mice. The following applies: for activation (firing) of VIP neurons: bath application, 5-HT 5 μM, AP5 100 μM, slices from normal mice. The procedure: Adult (10–16 weeks old) VIP-Cre-expressing mCherry mice with or without a cannula were firstly anesthetized by being injected intraperitoneally with tribromoethanol (250 mg/kg) and then perfused transcardially with 20 mL of ice-cold N-methyl-D-glucamine (NMDG) artificial cerebrospinal fluid (ACSF) solution (oxygenated with 5% CO2 + 95% O2) containing (mM): 93 NMDG, 93 HCl, 2.5 KCl, 10 MgSO4·7H2O, 1.2 NaH2PO4·2H2O, 30 NaHCO3, 25 glucose, 20 HEPES, 5 sodium ascorbate, 3 sodium pyruvate and 2 thioureas, with 0.5 CaCl2·2H2O added (pH: 7.35, 303 mOsm). The brain was removed quickly after decapitation and immediately put into ice-cold oxygenated NMDG ACSF. A few minutes later, coronal slices containing the mPFC (300 μm thickness for mice) were sectioned in cold ACSF using a vibratome (VT1200 S, Leica) and then transferred into oxygenated NMDG ACSF at 32°C for incubation and recovery for 10–15 min. The brain slices were transferred to a normal oxygenated ACSF solution (126 mM NaCl, 2.5 mM KCl, 2 mM MgSO4·7H2O, 1.25 mM NaH2PO4·2H2O, 25 mM NaHCO3, 10 mM glucose, 2 mM CaCl2) at room temperature for 1 h. All chemicals were purchased from Sigma–Aldrich (St. Louis, MO, USA).
For mPFC VIP neuron recordings, brain slices were transferred into the recording chamber filled with ACSF. VIP positive neurons were visualized with differential interference contrast optics (DIC, Olympus BX61WI). The recording pipettes (4-5 MΩ) were pulled with a micropipette puller (P97, Sutter Instrument; USA). For whole-cell patch-clamp recording, the pipette was filled with an internal solution containing (mM) 133 potassium gluconate, 18 NaCl, 0.6 EGTA, 2 Mg·ATP, 0.3 Na3·GTP, 10 Hepes (pH: 7.20, 280-290 mOsm). […]
To investigate the underlying synergistic effects of 5-HT (5 μM, Sigma) and AP5 (100 μM, Sigma) on neuronal excitability and firing, the two drugs were alone or together continuously perfused into the recording chamber using a medicine delivery pipe after a baseline was recorded for 5 min. The spikes were recorded under […] 1 minute after the drugs were delivered. […]

The subject of data set [4] is mPFC VIP neurons expressing the hM4Di receptor. The experiment in a line: Cell-attached recording of hM4Di-expressing mPFC VIP neurons in brain slices. In kind it is cell-based, mice. The note with it: 10 μM. The procedure:
In the chemogenetic inhibition assay, we injected the AAV-DIO-hM4Di-mCherry vector into the bilateral mPFC of VIP-Cre mice. […] Behavioral experiments were performed after mice had been allowed to recover for 3 weeks after viral injection (Fig. 5A).

Data set [5] relates to mice. In words: MK-801 alone and with fluoxetine: behavioural tests 24 h after injection. In kind it is in vivo. The note with it: single injection, alone. The procedure: as §1
For data set [6], the system named is 5-HT neurons in the dorsal raphe nucleus (DRN). The experiment in a line: c-Fos activation of DRN 5-HT neurons after ketamine. It is filed as in vivo, mice. The following applies: after ketamine injection. The procedure:
(§2) All mice were deeply anesthetized with an overdose of pentobarbital and then transcardially perfused with 0.9% saline solution followed by 4% paraformaldehyde (PFA) in PBS. After 24 h of post-fixation in 4% PFA overnight at 4 °C, brains were subsequently immersed in a 30% sucrose solution for dehydration for 24-48 h. Brains were sectioned coronally at a thickness of 40 μm with a Vibration Microtome (Leica VT1200S). Coronal brain sections were washed in PBS, blocking solution containing 0.5% Triton X-100 and 5% normal bovine serum albumin was dissolved in 1x PBS. After blocking for 1-2 h and washing, brain sections were incubated with the primary antibody rabbit polyclonal anti-c-Fos (1:1000, Synaptic system) for 48 h at 4 °C. After washing, these brain sections were incubated with secondary antibody Alexa Fluor 594-conjugated donkey anti-rabbit IgG (1:1000, Jackson ImmunoResearch) at […]. Cell nuclei were identified using the 4, 6-diamidino-2-phenylindole (DAPI) stain (1:10000, Jackson ImmunoResearch). Imaging was carried out with a digital slide scanner (Olympus, VS120-S6-W) and a confocal microscope (Nikon, Ti-E+A1R SI).

Another data set concerns VIP neurons in the mPFC. The experiment in a line: c-Fos immunolabeling of mPFC VIP neurons after ketamine. In kind it is in vivo, mice. The note with it: antidepressant dose; 1.5 h after injection; average. As to the method: (§3) VIP, parvalbumin (PV) and somatostatin (SST) neurons are the three main types of gamma-aminobutyric acid (GABA)ergic interneurons in the mPFC [63].
as §2

The next data set concerns PV neurons in the mPFC. The experiment in a line: Activation/excitability of mPFC PV neurons after ketamine (c-Fos, patch-clamp). It is filed as in vivo, mice. The note with it: after ketamine injection. The procedure:
as §3, §2

The test system of the next data set is SST neurons in the mPFC. In words: Activation/excitability of mPFC SST neurons after ketamine (c-Fos, patch-clamp). In kind it is in vivo, mice. The note with it: after ketamine injection. As to the method: as §3, §2
On the technique in general: Patch clamp records ionic current or voltage across a cell membrane.

Another data set has as its system mPFC 5-HT. In words: In vivo real-time microdialysis of mPFC 5-HT. On the set-up: species or system mice. The following applies: i.p. 10 mg/kg; during the 15 min after injection; baseline ∼100%.
Setting [7] is: palonosetron into mPFC before ketamine.

Turning to `NC(Cc1ccc(Cl)cc1)C(=O)O` (racemic) [p-CPA, 4-chloro-DL-phenylalanine], in the data set with mPFC VIP neurons [1] (1 h after injection), the “number of spikes in response to depolarizing current pulses” value was “decreased” and the “resting membrane potential (RMP) of VIP neurons, average” value (“resting membrane potential (RMP)” below) is −69.7 mV. Besides, in the data set with mice [2], the “locomotion and anxiety-like behaviors during the OFT” value is reported as “did not affect locomotion or cause anxiety-like behaviors”; the “effect of pre-treatment on ketamine's decrease of immobility in TST and FST” value was “attenuated the ketamine-related decrease in the duration of immobility”.

For `NCCc1c[nH]c2ccc(O)cc12` [5-HT, serotonin], the “activation (firing) of VIP neurons” value in the data set with mPFC VIP neurons [3] is reported as “did not activate VIP neurons”.

With `NC(CCCP(=O)(O)O)C(=O)O` (centres unmarked) [AP5], the “resting membrane potential (RMP)” value in the data set on mPFC VIP neurons [1] (1 h after injection) is recorded as “–65.1 mV”. Besides, in the data set on mPFC VIP neurons [3], the “activation (firing) of VIP neurons” value is listed as “did not activate VIP neurons”.

For the molecule `C[N+]1([O-])CCN(C2=Nc3cc(Cl)ccc3Nc3ccccc32)CC1` [CNO, clozapine N-oxide], the “mPFC VIP neuron activity in brain slices” value in data set [4] is reported as “significantly inhibited”.

`C[C@]12N[C@H](Cc3ccccc31)c1ccccc12` [MK-801]: in the data set with mice [5], the “antidepressant effects after 24 h” value is listed as “does not result in antidepressant effects”.

For the molecule `CNCCC(Oc1ccc(C(F)(F)F)cc1)c1ccccc1` (centres unmarked) [fluoxetine], the “antidepressant effects after 24 h” value in the data set on mice [5] was “does not result in antidepressant effects”.

As for `CNC1(c2ccccc2Cl)CCCCC1=O` (centres unmarked) [ketamine], the “activation of DRN 5-HT neurons” value in data set [6] was “did not activate”. Besides, the “VIP neurons activated (c-Fos+ among VIP neurons)” value with VIP neurons in the mPFC amounted to 38.8%. Also, in the data set on PV neurons in the mPFC, the “changes in electrophysiological characteristics of excitability of PV neurons” value was “neither PV nor SST neurons showed any changes”. Besides, in the data set on SST neurons in the mPFC, the “changes in electrophysiological characteristics of excitability of SST neurons” value is given as “neither PV nor SST neurons showed any changes”. For the same molecule, in the data set with mPFC VIP neurons [1] (1 h after injection), the “number of spikes in response to depolarizing current pulses” value is “remarkable increase” and the “resting membrane potential (RMP)” value was −44.2 mV. In the data set on mPFC VIP neurons [1] (1 h after injection, ketamine 10 mg/kg i.p., p-CPA 150 mg/kg once daily 3 days, AP5 40 nmol mPFC, fluoxetine 10 mg/kg i.p.), the “percentage of firing VIP neurons” value stood at 75%. The “membrane capacitance of VIP neurons” value with mPFC VIP neurons [1] (firing neurons after ketamine) is listed as “no change in membrane capacitance”.

`CC12CC3CC(C)(C1)CC(N)(C3)C2` [memantine]: in the data set with mPFC 5-HT, the “average relative-to-baseline 5-HT levels in the mPFC” value is given as “did not show such an effect”.

Turning to `O=C1c2cccc3c2[C@H](CCC3)CN1[C@@H]1CN2CCC1CC2` [palonosetron], the “percentage of firing VIP neurons” value with mPFC VIP neurons [1] (palonosetron into mPFC 0.5 h before ketamine i.p., controls ∼10.5%) is reported as around 10%. In the data set on mPFC VIP neurons [1] (setting [7]), the “change in RMP of VIP neurons” value is recorded as “no change in the RMP”, the “change in membrane capacitance of VIP neurons” value is on record as “moderate increase in membrane capacitance” and the “change in membrane resistance of VIP neurons” value was “no change in membrane resistance”. In the data set on mPFC VIP neurons [3] (palonosetron 10 μM), the “effect on VIP neuron activation by 5-HT combined with AP5” value is recorded as “blocked the effect of 5-HT combined with AP5”. In the data set on mice [2], the “locomotion and anxiety-like behaviors during the OFT” value is reported as “did not affect locomotion or cause anxiety-like behaviors”; the “effect of pre-treatment on ketamine's decrease of immobility in TST and FST” value is “this effect was blocked”.
